This test has as its system rats. As to the kind of experiment: animal experiments: recovery of cognitive abilities in rats after administration of deoxypeganine. It counts as in vivo. Conditions: restoration did not occur, or occurred only considerably later, in untreated control animals.

As to `c1ccc2c(c1)CN1CCCC1=N2` [deoxypeganine, 1,2,3,9-tetrahydropyrrolo[2,1-b]quinazoline], the “recovery of cognitive abilities” value is “able to bring about a recovery of cognitive abilities”.

The values above are taken from patent US20040132751A1, “Use of desoxypeganine for treating central nervous system symptoms resulting from intoxications by psychotrops” (priority 2001, published 2004).
